Assay [1] deals with Glutamate receptor ionotropic, NMDA 1 (Rattus norvegicus, UniProt P35439). Kind of assay: Tested for the ability to displace [3H]glycine, by greater than 50%, from NMDA receptor of rat cortical membranes at a dose of 10 uM.
A further assay deals with Glutamate NMDA receptor. The assay is described as follows: Tested for the ability to inhibit [3H]MK-801 binding to NMDA receptor of rat cortical membranes in the presence of glutamate (1 uM).

By Ki is commonly meant a dissociation constant, usually derived from enzyme kinetics or from competition with a known ligand. By IC50 is commonly meant the concentration at which inhibition is half-maximal. `O=C(O)CCc1c(C(=O)O)nc2cc(Cl)cc(Cl)c2c1O` yielded a Ki in assay [1] of 7.04 µM. Moreover, the 50% inhibitory concentration (IC50) at Glutamate NMDA receptor worked out at 103 µM.

As for `O=C(O)Cc1c(C(=O)O)nc2ccccc2c1O`, in assay [1], the inhibitory constant (Ki) came out at 14.8 µM. The IC50 on Glutamate NMDA receptor came out at 83.4 µM.

Regarding `O=C(O)Cc1cc2ccccc2nc1C(=O)O`, the inhibition constant Ki in assay [1] is over 100 µM. For the same compound, on Glutamate NMDA receptor, the concentration for half-maximal inhibition (IC50) is over 100 µM.

`O=C(O)c1cc2c(Cl)cc(Cl)cc2[nH]1` displayed a Ki in assay [1] of 0.98 µM. Further, the 50% inhibitory concentration (IC50) at Glutamate NMDA receptor is 5.91 µM.

Turning to `O=C(O)Cc1c(C(=O)O)[nH]c2cc(Cl)cc(Cl)c12`, the inhibitory constant (Ki) in assay [1] stood at 0.34 µM. Besides, on Glutamate NMDA receptor, the 50% inhibitory concentration (IC50) is 3.33 µM.

`O=C(O)CCc1c(C(=O)O)[nH]c2cc(Cl)cc(Cl)c12` yielded a Ki in assay [1] of 0.14 µM.

Regarding `O=C(O)Cc1c(C(=O)O)nc2cc(Cl)cc(Cl)c2c1O`, the affinity in assay [1], expressed as Ki, was 0.65 µM. Further, the half-inhibitory concentration (IC50) on Glutamate NMDA receptor turned out to be 3.54 µM.

Regarding `O=C(O)c1cc(O)c2c(Cl)cc(Cl)cc2n1`, the IC50 at Glutamate NMDA receptor stood at 0.86 µM.

The values are drawn from ChEMBL document CHEMBL1127100, “Structure-activity relationships of a series of glycine antagonists related to 5,7-dichlorokynurenic acid and 3-(2-carboxy-6-chloroindol-3-yl)acetic acid” (Bioorg Med Chem Lett, 1993).
